# Test results: patent publication US20080187508A1, “Treatment of Golmerular Basement Membrane Disease Involving Matrix Metalloproteinase-12” (BOYS TOWN NATIONAL RESEARCH HOSPITAL, priority 2004, published 2008)
# “Also recorded” adds a separate entry of the source. Structures can show the parent of a compound that is named as a salt. Where two headings read alike, the source gives them in different places.
# Legend:
# Alport mice = assay: immunofluorescence of kidney cryosections (fibronectin, collagen IV α1/α2) of treated Alport mice; type: in vivo, mouse; conditions: Alport mice treated from 4 to 7 weeks of age, MMI-270 50 μg/g I.P., BAY 129566 4 mg once daily oral gavage, fibronectin and collagen IV α1/α2 immunostaining
# Procedure: The Alport mouse model has been described (Cosgrove et al. (1996) Genes Dev. 10, 2981-2992). The control mice used were normal for both collagen α3(IV) alleles, and are a product of double heterozygote crosses for the Alport mutation. The use of animals in this study was performed in accordance with an approved institutional IACUC protocol. Extreme care was taken to minimize pain and discomfort suffered by the mice. MMP inhibitors were administered between 4 and 7 weeks of age. All drugs were freshly prepared prior to administration. BAY 129566 was emulsified in suspension with 0.5% carboxymethyl cellulose and 4 mg given once a day by oral gavage. MMI-270 was solubilized in 0.9% saline and administered by I.P. injection (50 μg/g body weight) once a day.
# Cryosections ([…]) of kidneys from 7-week-old normal and Alport mice were air dried, fixed by immersion in ice cold acetone, and subjected to immunohistochemical staining analysis using antibodies specific for MMP-3 (rabbit polyclonal anti-human MMP-3, a gift from Dr. Z. Gunza-Smith, Miami, Fla., used at 1:200 dilution), MMP-12 (rabbit polyclonal antibody against mouse MMP-12, kindly provided by Yoshikatsu Kaneko, used at 1:100 dilution), type IV collagen α1/2 chains (rabbit polyclonal against mouse type IV collagen, Biodesign, Inc., Saco, Me., used at 1:200 dilution), fibronectin (rabbit polyclonal against human plasma fibronectin, Sigma Chemical Co., St. Louis, Mo., used at 1:200). Anti-CD31 antibodies were directly conjugated to Alexa 568 (Molecular Probes, Eugene Oreg.) and purchased from Immunotech (Marseille, France). […] Images were collected using a Cytovision Ultra Image analysis system interfaced with an Olympus BH-2 fluorescence microscope.
# To assess the effect of these two compounds on Alport renal disease progression, Alport mice were administered either MMI 270 or BAY 129566 from 4 to 7 weeks of age. […] Cryosections were analyzed by immunofluorescence microscopy to assess for the degree of glomerular and tubulointerstitial damage using antibodies specific for collagen IV α1 and α2 chains, and fibronectin.
# MMP-14 = MMP-14 (Homo sapiens, UniProt P50281); conditions: hydrochloride monohydrate; cited from earlier work
# MMP-12 = MMP-12 (Homo sapiens, UniProt P39900); conditions: cited from earlier work
# [1] = listed as NMI 270, hydrochloride monohydrate
# Sequence of MMP-12 (P39900 106-470, species assumed): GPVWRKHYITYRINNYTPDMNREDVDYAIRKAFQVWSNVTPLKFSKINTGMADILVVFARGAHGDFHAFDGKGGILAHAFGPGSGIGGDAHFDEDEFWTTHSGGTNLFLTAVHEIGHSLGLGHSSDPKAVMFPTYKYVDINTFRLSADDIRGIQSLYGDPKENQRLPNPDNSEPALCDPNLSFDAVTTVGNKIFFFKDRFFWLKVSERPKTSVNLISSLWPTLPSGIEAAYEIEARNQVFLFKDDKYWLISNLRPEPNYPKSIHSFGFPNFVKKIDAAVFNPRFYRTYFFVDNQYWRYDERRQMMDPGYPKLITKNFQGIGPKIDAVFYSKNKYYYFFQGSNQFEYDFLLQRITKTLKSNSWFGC
structure (smiles),measurement,setting,value
"COc1ccc(S(=O)(=O)N(Cc2cccnc2)[C@@H](C(=O)NO)C(C)C)cc1 [MMI 270, N-hydroxy-2(R)-[(4-methoxysulfonyl)(3-picolyl)amino]-3-methylbutaneamide hydrochloride monohydrate]",glomerular and tubulointerstitial (renal) disease progression,Alport mice; hydrochloride monohydrate,very little glomerular or interstitial disease; also recorded: remarkable improvement
same,glomerular and tubulointerstitial (renal) disease progression,Alport mice; [1],significantly reduced interstitial disease
same,"MMP inhibitory effect, MMP-14",MMP-14,inhibits
same,"MMP inhibitory effect, MMP-12",MMP-12; hydrochloride monohydrate,inhibits
same,"MMP inhibitory effect, MMP-12",MMP-12; [1],inhibits
